# Read-outs that look alike come from different tables or passages of the source.
# Columns and labels:
# [1] = Solubility in artificial bile of sonicated, lyophilized sitostanol mixtures (Example 6); assay type: physicochemical; conditions: compared with lecithin and lysolecithin / SSL
# Experimental: Solubility in artificial bile was determined by adding 8 mM sodium taurocholate 5 mM PC 0.15 M NaCl 15 mM sodium phosphate pH 7.4 (artificial bile), rotating for 30 min. at 37° and centrifuging at 17,000×g for 1 min. The pellet was washed once and the combined sups and pellet were counted separately.
# serum cholesterol = conditions: cited from earlier work
# cholesterol absorption = conditions: cited from earlier work
# [2] = Solubility of sitostanol mixtures dried from chloroform in artificial bile (Example 1); assay type: physicochemical; conditions: artificial bile (8 mM sodium taurocholate, 5 mM soy lecithin, pH 7.4), 37° C, 30 min; mixture dried from chloroform
# Experimental: An aliquot, containing 1.2 μMol of sitostanol, was transferred to an evacuation tube and the solvent was removed under reduced pressure (<50 mtorr). The experiment was initiated by adding 0.5 mL of artificial bile (8 mM sodium taurocholate containing 5 mM soy lecithin and 0.15 mM NaCl, pH 7.4) followed by rotation at 8 rev/min for 30 min at 37° C. The tube was then centrifuged for 1 minute at 17,000×g to precipitate any solid material, the supernatant was removed and added to scintillation fluid for measurement of radioactivity, and the percent of radioactivity in the artificial bile supernatant was calculated.
# [3] = Solubility in artificial bile with variable amounts of lecithin, repeated extraction (Example 3); assay type: physicochemical; conditions: tenfold excess of lecithin
# Experimental: Sitostanol, tracer amount of [^3 H]sitostanol, and other compounds that are found in the gut or that are commonly used as food additives were mixed together in chloroform solution at a fixed mole ratio. An aliquot, containing 1.2 μMol of sitostanol, was transferred to an evacuation tube and the solvent was removed under reduced pressure (<50 mtorr). The experiment was initiated by adding 0.5 mL of artificial bile (8 mM sodium taurocholate containing 5 mM soy lecithin and […], pH 7.4) followed by rotation at 8 rev/min for 30 min at 37° C. The tube was then centrifuged for 1 minute at 17,000×g to precipitate any solid material, the supernatant was removed and added to scintillation fluid for measurement of radioactivity, and the percent of radioactivity in the artificial bile supernatant was calculated. Table I below summarizes the solubility of sitostanol mixtures in the presence of artificial bile salt.
# The effectiveness of variable amounts of lecithin to solubilize sitostanol was studied as in Example #1, except that after rotation at 37° for 30 min residual sedimenting sitostanol was re-extracted twice by vortexing with 0.5 ml additional artificial bile and recentrifuging. The following results were obtained:
# When [^3 H]phosphatidylcholine was added as a tracer instead of [^3 H]sitostanol, the amount of lecithin solubilized was 93.3%. […]
# [4] = system: hypocholesterolemic activity; conditions: rat, in vivo; cited from earlier work
# [5] = in vivo; cited from earlier work
compound,measurement,setting,value
"CCCCCCCCCCCCCCCCCC(=O)OC(C)C(=O)OC(C)C(=O)[O-].[Na+] (centres unmarked) [SSL, Sodium stearoyl-2-lactylate]",effectiveness in solubilizing sitostanol,[1],as effective as lecithin and lysolecithin
CC[C@H](CC[C@@H](C)[C@H]1CC[C@H]2[C@@H]3CC=C4C[C@@H](O)CC[C@]4(C)[C@H]3CC[C@]12C)C(C)C [sitosterol],decrease of serum cholesterol levels,serum cholesterol; 3-9 g/day powdered sitosterol,12%
same,reduction of serum cholesterol,serum cholesterol; 5-18 g sitosterol/day,16-20%
sitostanol ester,less effective at reducing cholesterol absorption,"cholesterol absorption; ester dissolved in dietary fat compared to the unesterified sterol, humans",21%
neomycin,effect on cholesterol absorption,cholesterol absorption; given chronically (cholestyramine) or orally (neomycin),reduces cholesterol absorption effectively
"CC[C@H](CC[C@@H](C)[C@H]1CC[C@H]2[C@@H]3CC[C@H]4C[C@@H](O)CC[C@]4(C)[C@H]3CC[C@]12C)C(C)C [Sitostanol, sitostanol]",Soluble Sterol,[2],2.3%
same,sitostanol remaining insoluble,[3],32%
same,reduction of serum cholesterol,"serum cholesterol; 1.5 g/day, severe hypercholesterolemia",15%
same,effect in moderate hypercholesterolemia,serum cholesterol; 3 g/day,no effect
same,potency relative to other phytosterols,[4],more potent than other phytosterols
same,absorption,[5],non-absorbable

# Source: patent publication US6063776A, “Sitostanol formulation with emulsifier to reduce cholesterol absorption and method for preparing and use of same” (Washington University, priority 1999, dated 2000)
